Test results from ChEMBL document CHEMBL1125556, “Fluoroquinolones: relationships between structural variations, mammalian cell cytotoxicity, and antimicrobial activity” (J Med Chem, 1992).
Values after ≈ are worked out from the molar mass of the structure shown.

Key:
V79 = assay: Mammalian cell cytotoxicity test in chinese hamster V79 cells (clonogenic cytotoxicity); format: functional, cell-based; conditions: Cricetulus griseus, V79; read-out: IC50
[1] = Antibacterial activity against five Gram-negative bacteria; format: functional; conditions: read-out: MIC

Structure (SMILES) | MIC [1] [µg/mL] | IC50 (V79) [µg/mL]
NC1CCN(c2c(F)cc3c(=O)c(C(=O)O)cn(C4CC4)c3c2C(F)(F)F)CC1 | 0.26 (≈ 0.629 µM) | 20 (≈ 48.4 µM)
NC1CCCN(c2c(F)cc3c(=O)c(C(=O)O)cn(C4CC4)c3c2C(F)(F)F)C1 (stereo not given) | 0.52 (≈ 1.26 µM) | > 500
NC1CCN(c2c(F)cc3c(=O)c(C(=O)O)cn(-c4ccc(F)cc4F)c3c2C(F)(F)F)C1 (stereo not given) | 0.52 (≈ 1.1 µM) | 99 (≈ 210 µM)
CNCC1(C)CCN(c2c(F)cc3c(=O)c(C(=O)O)cn(C4CC4)c3c2OC)C1 (stereo not given) | 0.52 (≈ 1.29 µM) | 120 (≈ 297 µM)
O=C(O)c1cn(C2CC2)c2nc(N3CCCC3)c(F)cc2c1=O | 0.26 (≈ 0.819 µM) | 58 (≈ 183 µM)
COc1c(N2CCC(N)C2)c(F)cc2c(=O)c(C(=O)O)cn(-c3ccc(F)cc3F)c12 (stereo not given) | 0.35 (≈ 0.808 µM) | 290 (≈ 669 µM)
CSc1c(F)c(N2CCC(N)C2)cc2c1c(=O)c(C(=O)O)cn2C1CC1 (stereo not given) | > 1.58 | 92 (≈ 244 µM)
CNCC1(C)CCN(c2c(F)cc3c(=O)c(C(=O)O)cn(C4CC4)c3c2C(F)(F)F)C1 (stereo not given) | > 30 | 230 (≈ 521 µM)
CNCC1(C)CCN(c2c(F)cc3c(=O)c(C(=O)O)cn(C4CC4)c3c2Cl)C1 (stereo not given) | 0.26 (≈ 0.637 µM) | 23 (≈ 56.4 µM)
CC1(n2cc(C(=O)O)c(=O)c3cc(F)c(N4CCC(N)C4)c(F)c32)CC1 (stereo not given) | 0.3 (≈ 0.826 µM) | 160 (≈ 440 µM)
CCNCC1CCN(c2c(F)cc3c(=O)c(C(=O)O)cn(-c4ccc(F)cc4F)c3c2Cl)C1 (stereo not given) | 1.05 (≈ 2.19 µM) | 130 (≈ 271 µM)
NCC1CCN(c2c(F)cc3c(=O)c(C(=O)O)cn(C4CC4)c3c2C(F)(F)F)C1 (stereo not given) | 0.52 (≈ 1.26 µM) | 38 (≈ 91.9 µM)
CCNCC1CCN(c2c(F)c(Cl)c3c(=O)c(C(=O)O)cn(C4CC4)c3c2Cl)C1 (stereo not given) | 0.6 (≈ 1.36 µM) | 270 (≈ 610 µM)
CNCC1(C)CCN(c2cc3c(cc2F)c(=O)c(C(=O)O)cn3C2CC2)C1 (stereo not given) | 0.4 (≈ 1.07 µM) | 205 (≈ 549 µM)
COc1c(N2CCC(C)(N)C2)c(F)cc2c(=O)c(C(=O)O)cn(C3CC3)c12 (stereo not given) | 0.26 (≈ 0.693 µM) | 38 (≈ 101 µM)
CC1(N)CCN(c2c(F)cc3c(=O)c(C(=O)O)cn(-c4ccc(F)cc4F)c3c2C(F)(F)F)C1 (stereo not given) | 2.07 (≈ 4.26 µM) | 18 (≈ 37.1 µM)
CCNCC1CCN(c2cc3c(c(C)c2F)c(=O)c(C(=O)O)cn3C2CC2)C1 (stereo not given) | 0.6 (≈ 1.55 µM) | 42 (≈ 108 µM)
COc1c(N2CCNCC2)c(F)cc2c(=O)c(C(=O)O)cn(C3CC3)c12 | 0.07 (≈ 0.194 µM) | 82 (≈ 227 µM)
COc1c(N2CCCC(N)C2)c(F)cc2c(=O)c(C(=O)O)cn(C3CC3)c12 (stereo not given) | 0.23 (≈ 0.613 µM) | 69 (≈ 184 µM)
COc1c(N2CC(C)NC(C)C2)c(F)cc2c(=O)c(C(=O)O)cn(C3CC3)c12 (stereo not given) | 0.34 (≈ 0.873 µM) | > 500
O=C(O)c1cn(C2CC2)c2c(F)c(N3CCNCC3)c(F)cc2c1=O | 0.07 (≈ 0.2 µM) | 47 (≈ 135 µM)
CCc1c(F)c(N2CCC(N)C2)cc2c1c(=O)c(C(=O)O)cn2C1CC1 (stereo not given) | 1.81 (≈ 5.04 µM) | 46 (≈ 128 µM)

Further compounds by falling MIC [1], results first:

MIC [1] [µg/mL] | Structure (SMILES) | IC50 (V79) [µg/mL]
0.23 (≈ 0.588 µM) | CNCC1(C)CCN(c2c(F)cc3c(=O)c(C(=O)O)cn(C4CC4)c3c2F)C1 (stereo not given) | 8 (≈ 20.4 µM)
0.21 (≈ 0.561 µM) | CCNCC1CCN(c2nc3c(cc2F)c(=O)c(C(=O)O)cn3C2CC2)C1 (stereo not given) | 160 (≈ 427 µM)
0.2 (≈ 0.632 µM) | O=C(O)c1cn(C2CC2)c2cc(N3CCCC3)c(F)cc2c1=O | 38 (≈ 120 µM)
0.2 (≈ 0.53 µM) | CSc1c(N2CCC(N)C2)c(F)cc2c(=O)c(C(=O)O)cn(C3CC3)c12 (stereo not given) | 31 (≈ 82.1 µM)
0.2 (≈ 0.579 µM) | NCC1CCN(c2cc3c(cc2F)c(=O)c(C(=O)O)cn3C2CC2)C1 (stereo not given) | 81 (≈ 235 µM)
0.15 (≈ 0.376 µM) | O=C(O)c1cn(C2CC2)c2c(C(F)(F)F)c(N3CCNCC3)c(F)cc2c1=O | 1650 (≈ 4130 µM)
0.11 (≈ 0.293 µM) | COc1c(N2CCC(CN)C2)c(F)cc2c(=O)c(C(=O)O)cn(C3CC3)c12 (stereo not given) | 10 (≈ 26.6 µM)
0.1 (≈ 0.285 µM) | O=C(O)c1cn(C2CC2)c2c(Cl)c(N3CCCC3)c(F)cc2c1=O | 150 (≈ 428 µM)
0.1 (≈ 0.299 µM) | O=C(O)c1cn(C2CC2)c2c(F)c(N3CCCC3)c(F)cc2c1=O | 120 (≈ 359 µM)
0.08 (≈ 0.211 µM) | NC1CCN(c2c(F)cc3c(=O)c(C(=O)O)cn(C4CC4)c3c2Cl)CC1 | 18 (≈ 47.4 µM)
0.08 (≈ 0.218 µM) | NC1CCN(c2c(F)c(F)c3c(=O)c(C(=O)O)cn(C4CC4)c3c2F)C1 (stereo not given) | 100 (≈ 272 µM)
0.08 (≈ 0.223 µM) | CC1CN(c2cc3c(cc2F)c(=O)c(C(=O)O)cn3C2CC2)CC(C)N1 (stereo not given) | > 500
0.07 (≈ 0.178 µM) | CC1(CN)CCN(c2c(F)cc3c(=O)c(C(=O)O)cn(C4CC4)c3c2Cl)C1 (stereo not given) | 8 (≈ 20.3 µM)
0.06 (≈ 0.158 µM) | NCC1CCN(c2c(F)cc3c(=O)c(C(=O)O)cn(C4CC4)c3c2Cl)C1 (stereo not given) | 8 (≈ 21.1 µM)
0.05 (≈ 0.138 µM) | NCC1CCN(c2c(F)cc3c(=O)c(C(=O)O)cn(C4CC4)c3c2F)C1 (stereo not given) | 11 (≈ 30.3 µM)
0.05 (≈ 0.132 µM) | CC1CN(c2c(F)cc3c(=O)c(C(=O)O)cn(C4CC4)c3c2F)CC(C)N1 (stereo not given) | 150 (≈ 397 µM)
0.03 (≈ 0.0821 µM) | NC1CCN(c2c(F)c(O)c3c(=O)c(C(=O)O)cn(C4CC4)c3c2F)C1 (stereo not given) | 43 (≈ 118 µM)
0.01 (≈ 0.0274 µM) | Nc1c(F)c(N2CCC(N)C2)c(F)c2c1c(=O)c(C(=O)O)cn2C1CC1 (stereo not given) | 15 (≈ 41.2 µM)
